# Data published in paper PMC7163398 (ACS infectious diseases, 2017).
# Tested on: 17S resistant S. aureus USA300 strains
# Assay: Susceptibility of 17S resistant strains
# Format: cell-based, Staphylococcus aureus
# Details: 17S resistant S. aureus USA300 strains tested against 1S
substance,measurement,value
humimycin A [1S],cross-resistance of 17S resistant strains,cross-resistance
